Data taken from patent US12648936B2 (NOVARTIS AG, priority 2019, dated 2026).
pIC50, pKd: −log10 of the molar value.

Key:
FKBP51 = molecular target: T1, FKBP51 (Homo sapiens, UniProt Q13451); assay: SPR assay, binding affinity to FKBP51; conditions: single-cycle kinetics, immobilized avi-his6 FKBP51
T1 construct: made in house; host or cells: E. coli
T1 sequence (Q13451 1-457): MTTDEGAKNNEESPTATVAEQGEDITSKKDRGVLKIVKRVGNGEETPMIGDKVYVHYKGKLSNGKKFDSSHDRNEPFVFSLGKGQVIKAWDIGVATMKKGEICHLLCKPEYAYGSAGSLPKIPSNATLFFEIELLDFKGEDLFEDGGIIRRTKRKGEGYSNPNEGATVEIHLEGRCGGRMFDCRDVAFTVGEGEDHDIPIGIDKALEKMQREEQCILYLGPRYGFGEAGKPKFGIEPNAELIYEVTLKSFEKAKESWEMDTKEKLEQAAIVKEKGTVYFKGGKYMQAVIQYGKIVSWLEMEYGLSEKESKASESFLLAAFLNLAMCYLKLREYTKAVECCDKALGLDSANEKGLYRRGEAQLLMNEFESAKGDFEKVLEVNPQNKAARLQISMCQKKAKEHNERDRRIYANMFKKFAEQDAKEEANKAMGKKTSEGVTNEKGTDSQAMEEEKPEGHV
Description: (§1) SPR assay to determine binding affinity to FK506-binding proteins (FKBP). […] Each protein was subsequently immobilized on a streptavidin chip in a Biacore 8K SPR instrument (GE Healthcare). Using single-cycle kinetics, compound titrations were flowed at 45 uL/min over each surface using 2-minute association and 30-minute dissociation phases in a buffer containing 50 mM Tris pH 7.5/150 mM NaCl/0.01% Tween 20/1 mM DTT/2% DMSO. The data were fit using low molecular weight (LMW) single-cycle kinetics. The equilibrium dissociation constants (KD) are reported. The equilibrium dissociation constants (KD) to FKBP12, FKBP51, and FKBP52 are listed in Table 2 for the compound of the disclosure.

FKBP52 = molecular target: T2, FKBP52 (Homo sapiens, UniProt Q02790); assay: SPR assay, binding affinity to FKBP52; conditions: single-cycle kinetics, immobilized avi-his6 FKBP52
T2 construct: made in house; host or cells: E. coli
T2 sequence (Q02790 1-459): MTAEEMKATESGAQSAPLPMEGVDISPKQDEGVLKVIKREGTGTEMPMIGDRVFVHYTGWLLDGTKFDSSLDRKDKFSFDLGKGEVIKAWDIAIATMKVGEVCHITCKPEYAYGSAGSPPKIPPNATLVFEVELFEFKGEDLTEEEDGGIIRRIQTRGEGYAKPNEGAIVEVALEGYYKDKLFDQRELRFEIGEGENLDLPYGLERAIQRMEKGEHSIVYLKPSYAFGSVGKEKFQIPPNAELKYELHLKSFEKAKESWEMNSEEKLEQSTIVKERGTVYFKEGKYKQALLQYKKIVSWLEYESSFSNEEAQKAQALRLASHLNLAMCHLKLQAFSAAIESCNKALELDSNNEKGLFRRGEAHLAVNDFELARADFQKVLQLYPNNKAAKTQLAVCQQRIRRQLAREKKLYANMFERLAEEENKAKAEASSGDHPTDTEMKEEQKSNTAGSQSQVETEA
Description: as §1

[1] = test system: pS6 (Ser240/244) in MEF TSC1−/− cells (mTORC1 signaling); assay: Cell-based assay for rapalog potency (pS6 in MEF TSC1-/- cells); set-up: species or system Mouse; conditions: 2 hours treatment, average from multiple assays
Description: Cell-based assay for rapalog potency determination. Rapalog potency was determined using MEF TSC1−/− cell based assay. […] This cell-based assay is used to measure inhibition (de-phosphorylation) of S6 and 4EBP1 by rapalogs or other mTOR inhibitors.
MEF TSC1−/− cells were plated on Poly-D-lysine coated 384 well Griener clear bottom plates and incubated overnight at 37° C., 5% CO2. […] Nuclei were visualized with Hoechst (ThermoFisher Scientific #H3570) staining. Cells were imaged (InCell 600) using respective fluorescence channels and the potency of mTOR inhibitors was defined by pS6 IC50 (nM).

FKBP12 = molecular target: T3, FKBP12 (Homo sapiens, UniProt P62942); assay: SPR assay, binding affinity to FKBP12; conditions: single-cycle kinetics, immobilized avi-his6 FKBP12
T3 construct: made in house; host or cells: E. coli
Description: as §1

FKBP12.6 = FKBP12.6 (Homo sapiens, UniProt P68106); assay: SPR assay, binding affinity to FKBP12.6; conditions: single-cycle kinetics
Description: as §1

[2] = test system: S6K1(Thr389) phosphorylation (mTORC1 activity) in FKBP12 knock-out 293T cells; assay: pS6K1(Thr389) sandwich ELISA in FKBP12 knock-out 293T cells; type: cell-based; conditions: 2 hours, dose range 1000 nM to 0.0033 nM, relative to DMSO media (FIG. 1B)
Description: Cells were treated in triplicate. The Y axis represents percent inhibition of pS6K1(Thr389) relative to the level in cells treated with rapalog free media (media plus DMSO).
Generation of FKPB12 knock-out 293T cells.
WT and FKBP12 knock-out 293T cells were plated at a density of 30,000 cells per well in poly-D-Lysine coated 96-well plates (Corning, #354461) in Dulbecco's modified Eagle's medium (ThermoFisher, #11995-065) supplemented with 10% fetal bovine serum (ThermoFisher, #16140-071). Cells were incubated at 37° C., 5% CO2 for 48 hours until they reached ˜80% confluence. […] Media supplemented with blank Dimethyl sulfoxide (DMSO) was used as a control for both compounds. Phosphorylated amounts of S6K1 (Thr389) were detected by a sandwich ELISA kit (Cell signaling, #7063C) following the manufacture's protocol.
S6K1 is a downstream target of mTORC1 and phosphorylation of its rapalog-sensitive Thr389 site is used as a functional readout of mTORC1 activity (Lee, C. H., Inoki, K. and Guan, K. L. (2007). mTOR pathway as a target in tissue hypertrophy. Annu. Rev. Pharmacol. Toxicol. 47, 443-467).

FKBP25 = molecular target: T4, FKBP25 (Homo sapiens, UniProt Q00688); assay: SPR assay, binding affinity to FKBP25; conditions: single-cycle kinetics
T4 sequence (Q00688 1-224): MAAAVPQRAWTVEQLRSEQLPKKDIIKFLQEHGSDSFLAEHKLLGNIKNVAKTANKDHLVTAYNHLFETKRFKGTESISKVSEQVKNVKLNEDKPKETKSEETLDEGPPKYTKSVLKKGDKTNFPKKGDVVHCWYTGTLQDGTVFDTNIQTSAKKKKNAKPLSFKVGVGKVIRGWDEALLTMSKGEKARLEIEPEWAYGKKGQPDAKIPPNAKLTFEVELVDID
Description: as §1

T3 sequence (P62942 whole entry): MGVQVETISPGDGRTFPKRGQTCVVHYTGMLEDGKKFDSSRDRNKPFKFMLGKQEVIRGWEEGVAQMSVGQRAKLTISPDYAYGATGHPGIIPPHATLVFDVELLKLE
Sequence of FKBP12.6 (P68106 whole entry, species assumed): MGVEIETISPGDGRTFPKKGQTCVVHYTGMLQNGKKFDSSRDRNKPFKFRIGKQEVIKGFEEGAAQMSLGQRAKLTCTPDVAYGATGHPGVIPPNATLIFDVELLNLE

**Q.** `CO[C@@H]1C[C@H](C[C@@H](C)[C@@H]2CC(=O)[C@H](C)/C=C(\C)[C@@H](O)[C@@H](OC)C(=O)[C@H](C)C[C@H](C)/C=C/C=C/C=C(\C)C(N3CCCCS3(=O)=O)C[C@@H]3CC[C@@H](C)[C@@](O)(O3)C(=O)C(=O)N3CCCC[C@H]3C(=O)O2)CC[C@H]1O` (stereo partly drawn) [Compound 4] was tested. Which pKd (FKBP51) did it give?
**A.** The pKd was 5.59.

**Q.** What about the pKd (FKBP52) of the same compound?
**A.** The pKd was 5.59.

**Q.** And the pIC50 ([1]; Mus musculus, 2 h)?
**A.** The pIC50 was 8.47.

**Q.** And the pKd (FKBP12)?
**A.** Its pKd is 7.96.

**Q.** With `CO[C@@H]1C[C@H](C[C@@H](C)[C@@H]2CC(=O)[C@H](C)/C=C(\C)[C@@H](O)[C@@H](OC)C(=O)[C@H](C)C[C@H](C)/C=C/C=C/C=C(\C)C(N3CCCS3(=O)=O)C[C@@H]3CC[C@@H](C)[C@@](O)(O3)C(=O)C(=O)N3CCCC[C@H]3C(=O)O2)CC[C@H]1OCCO` (single isomer, unassigned) [Compound 3] as the compound, how does the pIC50 [1] read?
**A.** Its pIC50 is 8.08.

**Q.** With `CO[C@@H]1C[C@H](C[C@@H](C)[C@@H]2CC(=O)[C@H](C)/C=C(\C)[C@@H](O)[C@@H](OC)C(=O)[C@H](C)C[C@H](C)/C=C/C=C/C=C(\C)C(N3CCCS3(=O)=O)C[C@@H]3CC[C@@H](C)[C@@](O)(O3)C(=O)C(=O)N3CCCC[C@H]3C(=O)O2)CC[C@H]1O` (stereo partly drawn) [Compound 1] as the compound, how does the pKd (FKBP51) read?
**A.** The pKd was 5.69.

**Q.** And the pKd (FKBP52)?
**A.** Its pKd is 5.45.

**Q.** What about the pKd (FKBP12.6) of the same compound?
**A.** The pKd was 7.25.

**Q.** And the pIC50 ([1]; Mus musculus, 2 h)?
**A.** Its pIC50 is 8.87.

**Q.** What about the pKd (FKBP12) of the same compound?
**A.** Its pKd is 8.19.

**Q.** What about the “inhibition of S6K1(Thr389) phosphorylation” value [2] of the same compound?
**A.** The value was “no longer inhibited”.

**Q.** And the pKd (FKBP25)?
**A.** Its pKd is 4.54.

**Q.** How did the pIC50 ([1]; Mus musculus, 2 h) turn out when `CO[C@H]1C[C@@H]2CC[C@@H](C)[C@@](O)(O2)C(=O)C(=O)N2CCCC[C@H]2C(=O)O[C@H]([C@H](C)C[C@@H]2CC[C@@H](O)[C@H](OC)C2)CC(=O)[C@H](C)/C=C(\C)[C@@H](O)[C@@H](OC)C(=O)[C@H](C)C[C@H](C)/C=C/C=C/C=C/1C` [Rapamycin, reference compound] was run?
**A.** Its pIC50 is 10.30.

**Q.** With `CO[C@H]1C[C@@H]2CC[C@@H](C)[C@@](O)(O2)C(=O)C(=O)N2CCCC[C@H]2C(=O)O[C@H]([C@H](C)C[C@@H]2CC[C@@H](OCCO)[C@H](OC)C2)CC(=O)[C@H](C)/C=C(\C)[C@@H](O)[C@@H](OC)C(=O)[C@H](C)C[C@H](C)/C=C/C=C/C=C/1C` [RAD001, everolimus, reference compound] as the compound, how does the pKd (FKBP51) read?
**A.** The pKd was 6.40.

**Q.** And the pKd (FKBP52)?
**A.** The pKd was 6.17.

**Q.** What about the pKd (FKBP12.6) of the same compound?
**A.** Its pKd is 7.92.

**Q.** And the pIC50 ([1]; Mus musculus, 2 h)?
**A.** The pIC50 was 10.30.

**Q.** And the pKd (FKBP12)?
**A.** The pKd was 6.54.

**Q.** What about the “inhibition of S6K1(Thr389) phosphorylation” value [2] of the same compound?
**A.** Its value is roughly 50%.

**Q.** And the pKd (FKBP25)?
**A.** Its pKd is 7.60.

**Q.** How did the pIC50 [1] turn out when `CO[C@@H]1C[C@H](C[C@@H](C)[C@@H]2CC(=O)[C@H](C)/C=C(\C)[C@@H](O)[C@@H](OC)C(=O)[C@H](C)C[C@H](C)/C=C/C=C/C=C(\C)C(N3CCCS3(=O)=O)C[C@@H]3CC[C@@H](C)[C@@](O)(O3)C(=O)C(=O)N3CCCC[C@H]3C(=O)O2)CC[C@H]1OCCO` (single isomer, unassigned) [Compound 2] was run?
**A.** The pIC50 was 7.65.
